Measurements as given in patent publication US20180303940A1, “LIPOSOME PRODUCTION USING ISOPROPANOL” (GLAXOSMITHKLINE BIOLOGICALS, S.A., priority 2011, published 2018).

Assay: Cholesterol solubility in solvents at saturation (dry residue weighed)
Format: physicochemical
Details: 50° C.
Method: 3 solvent compared: Ethanol , Isopropanol, Heptane
Cholesterol was progressively added to each solvent at 50° C. up to saturation of the solution
Once saturation is achieved, a sample of the solution is taken and the solvent is evaporated with a rotary evaporator and/or in an oven. Dry residue of cholesterol is weighed to determine the solubility value

cholesterol solubility in ethanol (ethanol): 6.7%
cholesterol solubility in heptane (heptane): 4.3%
cholesterol solubility in isopropanol (isopropanol): 12.1%
SMILES: CC(C)CCC[C@@H](C)[C@H]1CC[C@H]2[C@@H]3CC=C4C[C@@H](O)CC[C@]4(C)[C@H]3CC[C@]12C [cholesterol, (3β)-cholest-5-en-3-ol]
